Source: patent US11723877B2, “Microencapsulation process and product” (SPI PHARMA, INC., priority 2010, dated 2023)
One block for each compound: values may come before it.

Assays:
[1] = Dissolution of orally dispersible ibuprofen powder, USP apparatus IV flow through cell, phosphate buffer pH 7.2; assay type: physicochemical; conditions: phosphate buffer pH 7.2, 37° C., 16 mL/min, 900 mL, ODP 200 mg, average of two
Protocol: A USP apparatus IV flow through cell was used to measure the dissolution of three orally dispersible powder blends of Ibuprofen. Powder blends were made up of: Example 6 (SPI Pharma); uncoated Ibuprofen 50 (BASF, Florham Park, N.J.); and Dasan Medichem (Soul, Korea) taste-masked Ibuprofen. Each sample was weighed and mixed by the process of spatulation until mixed. This mixture was passed through #30 mesh ASTM and packed in stick packs.
(§1) An amount of sample equivalent to contain 200 mg of Ibuprofen was weighed out and placed in the bead mixture of the flow through cell. At a rate of 16 ml/min, a 37° C. pH 7.2 phosphate buffer was pumped through cell and the effluent from the cell was collected in a reservoir vessel and samples removed for subsequent analysis in HPLC for Ibuprofen content at the time point specified. The data is an average of two determinations.

[2] = Acetaminophen dissolution, USP method (900 mL water, 50 rpm, Apparatus 2); assay type: physicochemical; conditions: first of five data columns, no own time in head (taken as 0 min)
Protocol: Acetaminophen dissolution was compared between microcapsules prepared from Run #2 and Run #4, an uncoated acetaminophen standard and a commercial acetaminophen coated with ethylcellulose by USP dissolution method for Acetaminophen (900 mL water, 50 rpm, Apparatus 2).

[3] = Dissolution of orally dispersible acetaminophen powder, USP apparatus IV flow through cell, phosphate buffer pH 5.8; assay type: physicochemical; conditions: phosphate buffer pH 5.8, 37° C., 16 mL/min, 900 mL, ODP 160 mg, average of two
Text: A USP apparatus IV flow through cell was used to measure the dissolution of three orally dispersible powder blends of acetaminophen. Powder blends were made up of: Example 7 (SPI Pharma); uncoated Acetaminophen (Covidien, St. Louis, Mo.)) special granular; and Eurand (Dayton, Ohio) taste-masked Acetaminophen. Each sample was weighed and mixed by the process of spatulation until mixed. This mixture was passed through #30 mesh ASTM and packed in stick packs.
as §1, with “160” for “200”, “Acetaminophen” for “Ibuprofen”, “5.8” for “7.2”

physchem = conditions: aqueous buffer

- Ibuprofen dissolution % ([1]; 5 min): 70%
- Ibuprofen dissolution % ([1]; 10 min): 88%
- Ibuprofen dissolution % ([1]; 20 min): 91%
- Ibuprofen dissolution % ([1]; 30 min): 94%
- Ibuprofen dissolution % ([1]; 45 min): 94%
- Ibuprofen dissolution % ([1]; 60 min): 94%
Compound: CC(C)Cc1ccc(C(C)C(=O)O)cc1 (centres unmarked) [Plain API, Ibuprofen]

Compound: CC(=O)Nc1ccc(O)cc1 [Uncoated Acetaminophen STD, Acetaminophen]
- Percent (%) Drug Released [2]: 0%

Compound: CC(=O)Nc1ccc(O)cc1 [Uncoated Acetaminophen, Acetaminophen]
- Acetaminophen dissolution % ([3]; 5 min): 95%
- Acetaminophen dissolution % ([3]; 10 min): 96%
- Acetaminophen dissolution % ([3]; 15 min): 96%
- Acetaminophen dissolution % ([3]; 30 min): 96%
- Acetaminophen dissolution % ([3]; 45 min): 96%
- Acetaminophen dissolution % ([3]; 60 min): 96%

- solubility (physchem): < 1000 µM
Compound: CC(C)Cc1ccc(C(C)C(=O)O)cc1 (centres unmarked) [uncoated ibuprofen, ibuprofen]
